Test results: US12226459B2, “Collagen hydrolysate for use in prevention and/or treatment of post intensive care syndrome (pics)” (ROUSSELOT B.V., priority 2022, dated 2025)

Tested on: PICS mouse model
Assay: PICS score in PICS mouse model (sepsis/ICU-care model)
Format: in vivo
Conditions: follow-up study; fluoxetine 20 mg/kg, whey protein 1.8 g/kg, daily oral gavage; in contrast to collagen hydrolysate
Protocol: A validated PICS mouse model was used, which is based on the model of Hujinami et al. (J Clin Med. 2021 April; 10(8): 1593.). The model is proven to induce PICS by mimicking ICU care following polymicrobial sepsis. This is achieved by intraperitoneal injection with cecal slurry followed by other typical ICU-related interventions (i.e. antibiotics and saline administration) for 72 h. The model incorporates a specific combination of physical (grip strength test), mental (anxiety level), and cognitive (discrimination index, habituation index, exploration time) parameters that often characterize PICS.
The development of PICS in the model was first confirmed in a pilot study (not shown herein). The mice develop PICS after ˜1 week.
The mice (C57BL6J, Charles River laboratories, France) receive collagen hydrolysate (“CH”, Peptan, Porcine ˜1800 Da, Rousselot B. V.) or the relevant controls according to the following experimental groups: • 1. No PICS+vehicle (saline), i.e. “Control” • 2. PICS+vehicle (saline), i.e. “PICS” • 3. PICS+CH 1.8 g/kg (˜10 g clinical dose), i.e. “PICS+low dose CH” • 4. PICS+CH 8 g/kg (˜44 g clinical dose), i.e. “PICS+high dose CH”
The mice are administered once a day from day 12 through day 47.
Treatment is started 4 days after the induction of PICS. The CH or vehicle is administered by daily oral gavage for a duration of […] (day 12-47). […]

## CNCCC(Oc1ccc(C(F)(F)F)cc1)c1ccccc1 (stereo not shown) [fluoxetine]
  improvement in PICS score: little/no improvement
